These results are taken from US8841269B2, “Polynucleotides for use in treating and diagnosing cancers” (Creighton University, priority 2010, dated 2014).

Data set [1] concerns 3′ UTR of human ER-α gene. The experiment in a line: Luciferase reporter assay, ER-α 3′ UTR let-7 binding site in pMIR-REPORT. It is filed as cell-based. Particulars: MCF7 cells; for luciferase activity, ER-α binding site in 3′UTR of luciferase: 60 nmol/L mimics, vs negative control miRNA; for luciferase activity, mutated ER-α binding sequence: mutated sequence in 3′UTR of luciferase. The source says: Luciferase assay. A fragment of the 3′ UTR of human ER-α gene, which contains the putative let-7 target sites, was synthesized (IDT technology). With attached SpeI and HindIII restriction sites, the fragments are 48 by long. The sense strand was 5′-[…] (SEQ ID NO:39) while the antisense strand was 5′-[…] (SEQ ID NO:40). The cloning and transfection followed previous protocol (Hu et al., 2009, J Immunol 183:1617-24). Sixty nanomolar let-7 mimics, anti-let-7 inhibitors, pre-miR negative control #1 (AM17110, Ambion), or anti-miR negative control #1 (AM17010, Ambion) were transfected together with a 0.25 μg luciferase construct and a 0.25 μg β-galactosidase plasmid, which were used as a normalization reference. After 24 hour post-transfection, the luciferase activity was measured in a Veritas Microplate Luminometer (Turner Biosystems). Every treatment had 3 replicates. The luciferase activity was expressed as a fraction of negative control.
For orientation: In a reporter assay the amount or activity of a reporter protein is the signal.

The test system of data set [2] is ER-α. The experiment in a line: Immunoblot of ER-α after transfection in MCF7. It is filed as cell-based, human. Particulars: MCF7, mimics 60 nmol/L. The source says:
(§1) Immunoblot analysis. For Western blot in FFPE tissues, an established method was followed (Addis et al., 2009, Proteomics 9:3815-23). For MCF7 cell line, let-7 mimics and negative control miRNA (60 nmol/L), or let-7 inhibitors and anti-miR negative control (60 nmol/L) were transfected following the protocol of siPORT NeoFX Transfection Agent (Applied Biosystems), The Western blot procedure was described before (Zhang et al., 2010, J Proteome Res., 9(2):980-989). Antibody information is as follows: ER-α, RB-9016-P1, Thermoscientific; Cyclin D1, sc-8396, Santa Cruz; pS2, ab80782 was Abeam; β-Actin, sc-69879, Santa Cruz.
On the technique in general: A western blot detects proteins with antibodies after separation by electrophoresis.

Data set [3] concerns cyclin D1. The data set can be described thus: Immunoblot of cyclin D1 after transfection in MCF7. It is filed as cell-based, human. To be noted: MCF7, mimics; for expression of cyclin D1 (protein): after 2 days; for protein expression of cyclin D1: after 6 days.
Source text: as §1

Data set [4] has as its system MCF7 cells. The experiment in a line: Annexin-V binding assay for apoptosis in MCF7. It is filed as cell-based, human. The procedure:
Annexin-V binding assay for apoptosis. […] The staining followed the protocol of FITC Annexin V Apoptosis Detection Kit I (Cat #556547, BD Biosciences). Cell populations were analyzed with a BD FACSAria™ flow cytometer. Approximately 20,000 cells were counted for each sample.

The test system of data set [5] is ER-α36. The experiment in a line: Immunoblot of ER-α36 after transfection. It is filed as cell-based, human. Particulars: MDA-MB-231, two days post transfection of mimics. As for the experimental part:
Let-7 miRNA or negative control #1 miRNA of 60 nmol/L (Ambion, Austin, Tex.) was transfected into cells with the siPORT NeoFX reagent (Ambion, Austin, Tex.) following the manufacturer's protocol.
Cells were lysed with NP40 cell lysis buffer (250 mM NaCl, 50 mM Tris-HCl, pH 7.4, 5 mM EDTA, 50 mM NaF, 1 mM Na3VO4, 1% Nonidet P40, 1 mM PMSF, proteinase and phosphoproteinase inhibitor cocktails). The protein was also extracted from FFPE sections. FFPE sections (50 μm thick) were transferred into a microcentrifuge tube and treated with xylene, followed by vortexing vigorously for 10 seconds. After centrifugation and removal of supernatant, the sections were washed with xylene two more times, followed by one more wash with 1 mL of 100% ethanol. The resultant pellets were vacuum dried, then resuspended in 300 μL of 20 mM Tris-HCl (pH 8.0) and 2% SDS and homogenized. The samples were then boiled at 100° C. for 20 minutes and incubated at 60° C. for 1 hour. After centrifugation at 10,000 g for 15 min at 4° C., the supernatant protein was saved for immunoblot analysis.
After mixed with gel-loading buffer and boiled for 5 minutes, the protein samples were separated with 10% SDS-PAGE and transferred to a PVDF membrane (Millipore, Billerica, Mass.). […] Gel density was quantified with Quantity One and expressed as a relative value against β-actin. […]

The subject of data set [6] is MCF7-Tam cells. The data set can be described thus: MTT cell proliferation assay with tamoxifen in MCF7-Tam. It is filed as cell-based, human. Particulars: 1 μmol/L tamoxifen. The procedure: MCF7-Tam cells were transfected with let-7 mimics or negative control in normal growth medium for 1 day, or in medium with 2.5% charcoal-stripped FBS for 2 days to exhaust endogenous estrogen. Ten thousand cells in the volume of 100 μL were seeded in a 96-well plate for 12 hours and assay lasted for another 4 days. For tamoxifen treatment, 1 μmol/L tamoxifen was added to each well of 96-well plate. Each treatment had 12 replicates on the plate. Medium volume was increased to 200 μL after the assay began. The cells were then incubated in 0.83 mg/mL 3-[4,5-dimethylthiazol-2-yl]-2,5-diphenyltetrazolium bromide (MTT) in growth medium at 37° C. for 4 hours and lysed in 100 μL of dimethyl sulfoxide at room temperature for 15 minutes. The absorbance in each well was measured at […] with an ELx800 Absorbance Microplate Reader (Biotek, Winooski, Vt.). Cell growth was expressed as a fraction of absorbance at day 0.
In general terms: Tetrazolium assays rely on reduction of a dye to a coloured formazan, in cell work by metabolically active cells.

Where [7] appears, read: E2 free medium (2.5% charcoal-stripped FBS).
The mark [8] stands for this setting: complete (normal growth) medium with 10% FBS.

Entries after “also recorded” stand apart in the source; their conditions may differ.

Regarding “let-7i: let-7i miRNA (mimic), 3′-UUGUCGUGUUUGAUGAUGGAGU-5′ (SEQ ID NO:14) (chemistry not given here; listed 3' to 5')”, the “luciferase activity, ER-α binding site in 3′UTR of luciferase” value in data set [1] was “decreased the luciferase activity; also recorded: significantly inhibited the luciferase activity”. For the same substance, the “luciferase activity, mutated ER-α binding sequence” value in data set [1] is “abrogated the effects; also recorded: did not show inhibition”. The “expression of ER-α (protein)” value in data set [2] (after 2 days) was “significantly depressed the expression of ER-α”; in data set [2] (after 6 days) it was “dramatically down-regulated the expression of ER-α”. For the same substance, the “expression of cyclin D1 (protein)” value in data set [3] is “significantly inhibited”. In data set [3], the “protein expression of cyclin D1” value is on record as “modest effect”. In addition, in data set [4] (MCF7, after either 3 days or 6 days), the “effect on apoptosis” value is “not significant”. Further, the ER-α36 protein level result in data set [5] is “strongly inhibited; also recorded: inhibited”. The results for the “tamoxifen sensitivity / cell growth (MTT) with tamoxifen” value in data set [6] (setting [7]) and in data set [6] (setting [8]) were “grew significantly slower; also recorded: significantly enhanced tamoxifen sensitivity” and “does not affect tamoxifen sensitivity”, respectively.

As to “let-7b: let-7b miRNA (mimic), 3′-UUGGUGUGUUGGAUGAUGGAGU-5′ (SEQ ID NO:8) (chemistry not given here; listed 3' to 5')”, the “luciferase activity, ER-α binding site in 3′UTR of luciferase” value in data set [1] is given as “decreased the luciferase activity; also recorded: significantly inhibited the luciferase activity”. Further, the “luciferase activity, mutated ER-α binding sequence” value in data set [1] was “abrogated the effects; also recorded: did not show inhibition”. Besides, the “expression of ER-α (protein)” value is “significantly depressed the expression of ER-α” in data set [2] (after 2 days) and “dramatically down-regulated the expression of ER-α” in data set [2] (after 6 days). Besides, in data set [3], the “expression of cyclin D1 (protein)” value is reported as “significantly inhibited”. In addition, the “protein expression of cyclin D1” value in data set [3] is “significantly decreased”. Further, the apoptotic rate in data set [4] (MCF7, after 6 days) came out at 28.6%; in data set [4] (MCF7, three days post-transfection), 7%. In data set [5], the ER-α36 protein level entry was “strongly inhibited; also recorded: inhibited”. Also, the “tamoxifen sensitivity / cell growth (MTT) with tamoxifen” value in data set [6] (setting [7]) is given as “grew significantly slower; also recorded: significantly enhanced tamoxifen sensitivity”; in data set [6] (setting [8]), “does not affect tamoxifen sensitivity”.
